Data: patent US12502362B2, “Inhibitors of nucleotidyltransferase superfamily enzymes as antibiotics” (priority 2017, dated 2025)
In brackets after ≈: the same amount, converted by molar mass. Where a name gives a salt, the structure may show the parent alone. Read-outs that look alike come from different tables or passages of the source.

Columns and labels:
[1] = Cytotoxicity assay (CC50), MTS; type: cell-based, human; conditions: human, HepG2-derived hepatoblastoma cell line (HEPDES19), HEPDES19 cells
Method: (§1) To further characterize the compounds, the minimal inhibitory concentration (MIC80) were determined for selected compounds. MIC80 is defined as the compound concentration at which ≥80% bacterial growth is inhibited compare to untreated controls. Meanwhile, for the selected compounds, cytotoxicity assays (CC50) were performed on a HepG2-derived hepatoblastoma cell line (HEPDES19). […] For CC50 evaluation, soluble tetrazolium dye (MTS) was used to measure mitochondrial toxicity in a human hepatoblastoma cell line (18). The bacteria (E. coli, S. saprophyticus and A. baumannii) used in MIC80 measurements were the same as that in the primary screening, but for Staphylococcus, S. aureus is used primarily because it is a common pathogen in Staphylococcaeae family, while S. saprophyticus is part of the normal human flora.

[2] = tested on: HepG2-derived hepatoblastoma cell line (HEPDES19); assay: Cytotoxicity assay (CC50), MTS; type: cell-based, human; conditions: HEPDES19 cells
Method: as §1

[3] = tested on: S. aureus and/or S. saprophyticus; assay: MIC80 on S. aureus and/or S. saprophyticus; type: cell-based; conditions: read-out: MIC80 against S. aureus and/or S. saprophyticus
Method: as §1, with “(HEPDES19). […] For the MIC80 measurements, a 1.5 fold dilution series of the compounds was prepared in Mueller-Hinton II broth.” for “(HEPDES19).”, “flora. S. aureus (ATCC 29213) is methicillin-sensitive Staphylococcus aureus (MSSA) strain and it was used as a model strain to measure the MIC80.” for “flora.”

S. aureus (ATCC 29213) = assay: MIC80 on S. aureus; type: cell-based, Staphylococcus aureus; conditions: ≥80% growth inhibition; for MIC80: Staphylococcus aureus, ATCC 29213 / MSSA, read-out: MIC80 S. aureus, S. aureus ATCC 29213 (MSSA); for MIC80 S. aureus: S. aureus ATCC 29213 (MSSA)
Method: as §1

E. coli (ATCC 35218) = assay: microbe, parasite or virus in culture; type: cell-based; conditions: for MIC80: Escherichia coli, ATCC35218, read-out: MIC80 E. coli, E. coli ATCC 35218; for MIC80 E. coli: E. coli ATCC 35218
Method: as §1

[4] = tested on: Staphylococcus saprophyticus (ATCC BAA-750); assay: MIC80 on S. saprophyticus; type: cell-based; conditions: Staphylococcus saprophyticus, ATCCBAA750; S. saprophyticus ATCC BAA-750; read-out: MIC80 S. sapro
Method: as §1

[5] = tested on: Coagulase negative Staphylococcus; assay: Antibiotic susceptibility of coagulase negative Staphylococcus strains; type: cell-based
[6] = tested on: S. aureus ATCC strains and MRSA; type: cell-based, Staphylococcus aureus
Staphylococcus hominis = type: cell-based
Method: (§2) It was also tested whether compounds #63 and #285 can inhibit other coagulase-negative Staphylococcus (CNS) including S. epidermidis, S. hominis, etc. […].

[7] = tested on: Staphylococcus epidermidis; type: cell-based
Method: as §2

[8] = CNS1 (Coagulase negative Staphylococcus)
[9] = CNS2 (Coagulase negative Staphylococcus)
[10] = Se1 (Staphylococcus epidermidis)
[11] = Se2 (Staphylococcus epidermidis)
[12] = Se3 (Staphylococcus epidermidis)
[13] = Se4 (Staphylococcus epidermidis)
[14] = Se5 (Staphylococcus epidermidis)

SMILES | CC50 [2] | MIC80 [3] | MIC80 (S. aureus (ATCC 29213)) | MIC80 S. aureus (S. aureus (ATCC 29213)) | Antibiotic susceptibility [5, 8] | Antibiotic susceptibility [5, 9] | Antibiotic susceptibility ([6]; S. aureus ATCC 25923) | Antibiotic susceptibility ([6]; S. aureus ATCC 29213) | Antibiotic susceptibility ([6]; S. aureus ATCC BAA 976) | Antibiotic susceptibility ([6]; S. aureus ATCC BAA 977) | Antibiotic susceptibility ([6]; S. aureus ATCC BAA 1026) | Antibiotic susceptibility ([6]; Sa1 (MRSA)) | Antibiotic susceptibility ([6]; Sa2 (MRSA)) | Antibiotic susceptibility ([6]; Sa3 (MRSA)) | Antibiotic susceptibility ([6]; Sa6 (MRSA)) | Antibiotic susceptibility ([6]; Sa7 (MRSA)) | Antibiotic susceptibility ([6]; Sa9 (MRSA)) | Antibiotic susceptibility ([6]; Sa11 (MRSA)) | Antibiotic susceptibility ([6]; Sa12 (MRSA)) | Antibiotic susceptibility ([6]; Sa14 (MRSA)) | also measured
Cc1cc(O)c(=O)c(O)cc1-c1ccc(Br)cc1 [Compound 114] | 38 µM | < 20 µM | 19.8 µM (≈ 6.08 µg/mL) | – | – | – | – | – | – | – | – | – | – | – | – | – | – | – | – | – | CC50 [1]: < 50 µM
O=c1cc(Cc2ccc(Br)cc2)c2cccnc2n1O [Compound 149, 4-[(4-bromophenyl)methyl]-1-hydroxy-1,8-naphthyridin-2-one hydrobromide] | – | – | – | – | – | – | – | – | – | – | – | – | – | – | – | – | – | – | – | – | MIC80 (E. coli (ATCC 35218)): > 100 µM; MIC80 [4]: 2.5 µM
O=C(Oc1cccccc1=O)c1cccc(Cl)c1 [Compound 282] | – | < 20 µM | 18.2 µM (≈ 4.74 µg/mL) | – | – | – | – | – | – | – | – | – | – | – | – | – | – | – | – | – | CC50 [1]: > 50 µM; MIC80 (E. coli (ATCC 35218)): > 100 µM
Cc1cccc(C(=O)Oc2cccccc2=O)c1 [Compound 283] | ≥ 100 µM | < 20 µM | 15.4 µM (≈ 3.7 µg/mL) | – | – | – | – | – | – | – | – | – | – | – | – | – | – | – | – | – | CC50 [1]: > 50 µM; MIC80 (E. coli (ATCC 35218)): > 100 µM
CC(=O)c1c(C)cc(O)c(=O)c(O)c1-c1ccc2ccccc2c1 [Compound 332] | 38 µM | – | – | 19.8 µM (≈ 6.34 µg/mL) | – | – | – | – | – | – | – | – | – | – | – | – | – | – | – | – | –
O=C(O)c1cn(Cc2cccc3ccccc23)c2ccccc2c1=O [Compound 432] | – | < 20 µM | 13.2 µM (≈ 4.35 µg/mL) | – | – | – | – | – | – | – | – | – | – | – | – | – | – | – | – | – | –
O=C(Cc1ccccc1)Sc1cccccc1=O [Compound 680] | > 100 µM | – | – | 29.6 µM (≈ 7.59 µg/mL) | – | – | – | – | – | – | – | – | – | – | – | – | – | – | – | – | MIC80 E. coli (E. coli (ATCC 35218)): 19.8 µM (≈ 5.08 µg/mL)
O=C(Sc1cccccc1=O)c1ccc(C(F)(F)F)cc1 [Compound 682] | 82.9 µM | – | – | 19.8 µM (≈ 6.14 µg/mL) | – | – | – | – | – | – | – | – | – | – | – | – | – | – | – | – | MIC80 E. coli (E. coli (ATCC 35218)): 66.7 µM (≈ 20.7 µg/mL)
Cc1ccc(S(=O)(=O)Oc2cc(C(C)C)cccc2=O)cc1 [Compound 688] | 27.5 µM | – | – | 11.6 µM (≈ 3.69 µg/mL) | – | – | – | – | – | – | – | – | – | – | – | – | – | – | – | – | MIC80 E. coli (E. coli (ATCC 35218)): >100 µM
CO[C@H]1/C=C/O[C@@]2(C)Oc3c(C)c(O)c4c(O)c(c(/C=N/N5CCN(C)CC5)c(O)c4c3C2=O)NC(=O)/C(C)=C\C=C\[C@H](C)[C@H](O)[C@@H](C)[C@@H](O)[C@@H](C)[C@H](OC(C)=O)[C@@H]1C [RIF, Rifampin] | – | – | – | – | S | S | S | S | S | S | S | S | S | S | S | S | S | S | S | S | Antibiotic susceptibility ([6]; Sa15 (MRSA)): R; Antibiotic susceptibility ([6]; Sa16 (MRSA)): S; Antibiotic susceptibility ([6]; Sa17 (MRSA)): S; Antibiotic susceptibility ([6]; Sa18 (MRSA)): S; Antibiotic susceptibility ([6]; Sa19 (MRSA)): S; Antibiotic susceptibility ([6]; Sa20 (MRSA)): S; Antibiotic susceptibility ([6]; Sa21 (MRSA)): S; Antibiotic susceptibility ([6]; Sa22 (MRSA)): S; Antibiotic susceptibility ([6]; Sa23 (MRSA)): S; MRSA strains resistant ([6]; number of resistant strains out of 21 MRSA strains): 1/21; Antibiotic susceptibility (Staphylococcus hominis): S; Antibiotic susceptibility [7]: S
CN(C)[C@@H]1C(O)=C(C(N)=O)C(=O)[C@@]2(O)C(O)=C3C(=O)c4c(O)cccc4[C@@](C)(O)[C@H]3C[C@@H]12 [TET, Tetracycline] | – | – | – | – | S | S | S | S | S | S | S | S | S | S | S | S | S | S | S | S | Antibiotic susceptibility ([6]; Sa5 (MRSA)): S; Antibiotic susceptibility ([6]; Sa15 (MRSA)): S; Antibiotic susceptibility ([6]; Sa16 (MRSA)): S; Antibiotic susceptibility ([6]; Sa17 (MRSA)): S; Antibiotic susceptibility ([6]; Sa18 (MRSA)): S; Antibiotic susceptibility ([6]; Sa19 (MRSA)): S; Antibiotic susceptibility ([6]; Sa20 (MRSA)): S; Antibiotic susceptibility ([6]; Sa21 (MRSA)): S; Antibiotic susceptibility ([6]; Sa22 (MRSA)): S; Antibiotic susceptibility ([6]; Sa23 (MRSA)): S; Antibiotic susceptibility (Staphylococcus hominis; Sh1 (Staphylococcus hominis)): R; Antibiotic susceptibility (Staphylococcus hominis; Sh2 (Staphylococcus hominis)): R; Antibiotic susceptibility (Staphylococcus hominis; Sh3 (Staphylococcus hominis)): S; Antibiotic susceptibility [7, 10]: S; Antibiotic susceptibility [7, 11]: S; Antibiotic susceptibility [7, 12]: S; Antibiotic susceptibility [7, 13]: S; Antibiotic susceptibility [7, 14]: S
CN(C)c1cc(NC(=O)CNC(C)(C)C)c(O)c2c1C[C@H]1C[C@H]3[C@H](N(C)C)C(O)=C(C(N)=O)C(=O)[C@@]3(O)C(O)=C1C2=O [TGC, Tigecycline] | – | – | – | – | S | S | S | S | S | S | S | S | S | S | S | S | S | S | S | S | Antibiotic susceptibility ([6]; Sa15 (MRSA)): S; Antibiotic susceptibility ([6]; Sa16 (MRSA)): S; Antibiotic susceptibility ([6]; Sa17 (MRSA)): S; Antibiotic susceptibility ([6]; Sa18 (MRSA)): S; Antibiotic susceptibility ([6]; Sa19 (MRSA)): S; Antibiotic susceptibility ([6]; Sa20 (MRSA)): S; Antibiotic susceptibility ([6]; Sa21 (MRSA)): S; Antibiotic susceptibility ([6]; Sa22 (MRSA)): S; Antibiotic susceptibility ([6]; Sa23 (MRSA)): S; Antibiotic susceptibility (Staphylococcus hominis; Sh1 (Staphylococcus hominis)): S; Antibiotic susceptibility (Staphylococcus hominis; Sh2 (Staphylococcus hominis)): S; Antibiotic susceptibility (Staphylococcus hominis; Sh3 (Staphylococcus hominis)): S; Antibiotic susceptibility [7, 10]: S; Antibiotic susceptibility [7, 11]: S; Antibiotic susceptibility [7, 12]: S; Antibiotic susceptibility [7, 13]: S; Antibiotic susceptibility [7, 14]: S
CN[C@H](CC(C)C)C(=O)N[C@H]1C(=O)N[C@@H](CC(N)=O)C(=O)N[C@H]2C(=O)N[C@H]3C(=O)N[C@H](C(=O)N[C@H](C(=O)O)c4cc(O)cc(O)c4-c4cc3ccc4O)[C@H](O)c3ccc(c(Cl)c3)Oc3cc2cc(c3O[C@@H]2O[C@H](CO)[C@@H](O)[C@H](O)[C@H]2O[C@H]2C[C@](C)(N)[C@H](O)[C@H](C)O2)Oc2ccc(cc2Cl)[C@H]1O [VAN, vancomycin] | – | – | – | – | S | S | S | S | S | S | S | S | S | S | S | S | S | S | S | S | Antibiotic susceptibility ([6]; Sa5 (MRSA)): S; Antibiotic susceptibility ([6]; Sa8 (MRSA)): S; Antibiotic susceptibility ([6]; Sa10 (MRSA)): S; Antibiotic susceptibility ([6]; Sa15 (MRSA)): S; Antibiotic susceptibility ([6]; Sa16 (MRSA)): S; Antibiotic susceptibility ([6]; Sa17 (MRSA)): S; Antibiotic susceptibility ([6]; Sa18 (MRSA)): S; Antibiotic susceptibility ([6]; Sa19 (MRSA)): S; Antibiotic susceptibility ([6]; Sa20 (MRSA)): S; Antibiotic susceptibility ([6]; Sa21 (MRSA)): S; Antibiotic susceptibility ([6]; Sa22 (MRSA)): S; Antibiotic susceptibility ([6]; Sa23 (MRSA)): S; Antibiotic susceptibility (Staphylococcus hominis; Sh1 (Staphylococcus hominis)): S; Antibiotic susceptibility (Staphylococcus hominis; Sh2 (Staphylococcus hominis)): S; Antibiotic susceptibility (Staphylococcus hominis; Sh3 (Staphylococcus hominis)): S; Antibiotic susceptibility [7, 10]: S; Antibiotic susceptibility [7, 11]: S; Antibiotic susceptibility [7, 12]: S; Antibiotic susceptibility [7, 13]: S; Antibiotic susceptibility [7, 14]: S
